Active and inactive are the calls of the source. No cut-off for these calls is given here.
Experiments:
RAW264.7 [1] = experiment: Antiinflammatory activity against LPS-induced mouse RAW264.7 cells assessed as downregulation of PI3K level incubated for 8 hrs by Western blot analysis; format: functional, cell-based; details: dose <= 20.0 µM
RAW264.7 [2] = experiment: Antiinflammatory activity against LPS-induced mouse RAW264.7 cells assessed as decrease in IL-1beta mRNA expression at 10 uM incubated for 8 hrs by RT-PCR analysis; format: functional, cell-based
RAW264.7 [3] = experiment: Antiinflammatory activity against LPS-induced mouse RAW264.7 cells assessed as suppression of iNOS mRNA expression incubated for 8 hrs by RT-PCR analysis; format: functional, cell-based; details: dose <= 20.0 µM
RAW264.7 [4] = experiment: Antiinflammatory activity against LPS-induced mouse RAW264.7 cells assessed as decrease in TNF-alpha mRNA expression incubated for 8 hrs by RT-PCR analysis; format: functional, cell-based; details: dose <= 20.0 µM
RAW264.7 [5] = experiment: Antiinflammatory activity against LPS-induced mouse RAW264.7 cells assessed as downregulation of total AKT level incubated for 8 hrs by Western blot analysis; format: functional, cell-based; details: dose <= 20.0 µM
RAW264.7 [6] = experiment: Antiinflammatory activity against LPS-induced mouse RAW264.7 cells transfected with AKT shRNA assessed as decrease in IL-1beta expression incubated for 8 hrs by Western blot analysis; format: functional, cell-based; details: dose <= 20.0 µM
Mus musculus [7] = experiment: Antiinflammatory activity against LPS-induced […] C57BL/6 mouse model assessed as reduction in lung injury score at 5 to 25 mg/kg, ip incubated for 24 hrs by H and E staining based analysis; format: functional, organism-based; details: dose 5-25 mg/kg
RAW264.7 [8] = experiment: Antiinflammatory activity against LPS-induced mouse RAW264.7 cells assessed as decrease in nuclear translocation incubated for 8 hrs by DAPI staining based immunofluorescence analysis; format: functional, cell-based; details: dose <= 20.0 µM
RAW264.7 [9] = experiment: Antiinflammatory activity against LPS-induced mouse RAW264.7 cells assessed as decrease in IL-1beta mRNA expression incubated for 8 hrs by RT-PCR analysis; format: functional, cell-based; details: dose <= 20.0 µM
RAW264.7 [10] = experiment: Antiinflammatory activity against LPS-induced mouse RAW264.7 cells assessed as decrease in IL-6 mRNA expression incubated for 8 hrs by RT-PCR analysis; format: functional, cell-based; details: dose <= 20.0 µM
Mus musculus [11] = experiment: Antiinflammatory activity against LPS-induced […] in ip dosed C57BL/6 mouse model assessed as increase in SOD level in serum incubated for 24 hrs; format: functional, organism-based; details: dose 5-25 mg/kg
Mus musculus [12] = experiment: Antiinflammatory activity against LPS-induced […] C57BL/6 mouse model assessed as reduction IkappaBalpha level in lung at 5 to 25 mg/kg, ip incubated for 24 hrs by Western blot analysis; format: functional, organism-based; details: dose 5-25 mg/kg
Mus musculus [13] = experiment: Antiinflammatory activity against LPS-induced […] C57BL/6 mouse model assessed as reduction in IL-1beta mRNA expression in lung at 5 to 25 mg/kg, ip incubated for 24 hrs by RT-PCR analysis; format: functional, organism-based; details: dose 5-25 mg/kg
RAW264.7 [14] = experiment: Antiinflammatory activity against mouse RAW264.7 cells assessed as reduction in LPS-induced ROS production incubated for 8 hrs by DCFH-DA staining based flow cytometry analysis; format: functional, cell-based; details: dose <= 20.0 µM
RAW264.7 [15] = experiment: Antiinflammatory activity against LPS-induced mouse RAW264.7 cells assessed as decrease in NF-kappaB level incubated for 8 hrs by DAPI staining based immunofluorescence analysis; format: functional, cell-based; details: dose <= 20.0 µM
RAW264.7 [16] = experiment: Antiinflammatory activity against LPS-induced mouse RAW264.7 cells assessed as decrease in TNF-alpha mRNA expression at 10 uM incubated for 8 hrs by RT-PCR analysis; format: functional, cell-based
RAW264.7 [17] = experiment: Antiinflammatory activity against LPS-induced mouse RAW264.7 cells assessed as decrease in NF-kappaB level incubated for 8 hrs by Western blot analysis; format: functional, cell-based; details: dose <= 20.0 µM
Mus musculus [18] = experiment: Antiinflammatory activity against LPS-induced […] in ip dosed C57BL/6 mouse model assessed as reduction in MDA level in serum incubated for 24 hrs; format: functional, organism-based; details: dose 5-25 mg/kg
Mus musculus [19] = experiment: Antiinflammatory activity against LPS-induced […] C57BL/6 mouse model assessed as reduction in IL-6 mRNA expression in lung at 5 to 25 mg/kg, ip incubated for 24 hrs by RT-PCR analysis; format: functional, organism-based; details: dose 5-25 mg/kg
RAW264.7 [20] = experiment: Antiinflammatory activity against LPS-induced mouse RAW264.7 cells transfected with AKT shRNA assessed as decrease in TNF-alpha expression incubated for 8 hrs by Western blot analysis; format: functional, cell-based; details: dose <= 20.0 µM
RAW264.7 [21] = experiment: Antiinflammatory activity against LPS-induced mouse RAW264.7 cells assessed as decrease in IkappaBalpha level incubated for 8 hrs by Western blot analysis; format: functional, cell-based; details: dose <= 20.0 µM
RAW264.7 [22] = experiment: Antiinflammatory activity against LPS-induced mouse RAW264.7 cells assessed as decrease in nuclear translocation incubated for 8 hrs by Western blot analysis; format: functional, cell-based; details: dose <= 20.0 µM
RAW264.7 [23] = experiment: Antiinflammatory activity against LPS-induced mouse RAW264.7 cells assessed as decrease in IL-6 mRNA expression at 10 uM incubated for 8 hrs by RT-PCR analysis; format: functional, cell-based
RAW264.7 [24] = experiment: Antiinflammatory activity against LPS-induced mouse RAW264.7 cells assessed as downregulation of AKT level incubated for 8 hrs by Western blot analysis; format: functional, cell-based; details: dose <= 20.0 µM
RAW264.7 [25] = experiment: Antiinflammatory activity against LPS-induced mouse RAW264.7 cells assessed as decrease in IkappaBalpha level incubated for 8 hrs by DAPI staining based immunofluorescence analysis; format: functional, cell-based; details: dose <= 20.0 µM
RAW264.7 [26] = experiment: Antiinflammatory activity against LPS-induced mouse RAW264.7 cells assessed as downregulation of total PI3K level incubated for 8 hrs by Western blot analysis; format: functional, cell-based; details: dose <= 20.0 µM
RAW264.7 [27] = experiment: Antiinflammatory activity against LPS-induced mouse RAW264.7 cells transfected with AKT shRNA assessed as decrease in IL-6 expression incubated for 8 hrs by Western blot analysis; format: functional, cell-based; details: dose <= 20.0 µM
Mus musculus [28] = experiment: In vivo inhibition of PI3K-AKT phosphorylation in LPS-induced […] C57BL/6 mouse model at 5 to 25 mg/kg, ip measured for 24 hrs by Western blot analysis; format: functional, organism-based; details: dose 5-25 mg/kg
Mus musculus [29] = experiment: Antiinflammatory activity against LPS-induced […] C57BL/6 mouse model assessed as reduction in TNF-alpha mRNA expression in lung at 5 to 25 mg/kg, ip incubated for 24 hrs by RT-PCR analysis; format: functional, organism-based; details: dose 5-25 mg/kg
RAW264.7 [30] = experiment: Antiinflammatory activity against LPS-induced mouse RAW264.7 cells assessed as inhibition of NO release incubated for 8 hrs […]; format: functional, cell-based; details: dose <= 20.0 µM
Mus musculus [31] = experiment: In vivo inhibition of PI3K-AKT phosphorylation in LPS-induced […] C57BL/6 mouse model at 5 to 25 mg/kg, ip measured for 24 hrs by Immunohistochemistry analysis; format: functional, organism-based; details: dose 5-25 mg/kg
RAW264.7 [32] = experiment: Cytotoxicity against mouse RAW264.7 cells assessed as reduction in cell viability at 60 uM measured after 24 hrs by MTT assay; format: toxicity, cell-based; details: raw264.7, 24 h

In the case of COc1c(C(C)C)cc2c(=O)cc3c(cc2c1OC)C=CC(=O)C3(C)C, the Activity (RAW264.7 [1]) is reported as “Dose-Dependent Effect”, the Activity (RAW264.7 [2]) is reported as “Active” and the Activity (RAW264.7 [3]) is reported as “Dose-Dependent Effect”. For the same compound, the Activity (RAW264.7 [4]) was “Dose-Dependent Effect”, the Activity (RAW264.7 [5]) was “Dose-Dependent Effect” and the Activity (RAW264.7 [6]) was “Dose-Dependent Effect”. For the same compound, the Activity (Mus musculus [7]) was “Active”, the Activity (RAW264.7 [8]) was “Dose-Dependent Effect” and the Activity (RAW264.7 [9]) was “Dose-Dependent Effect”. For the same compound, the Activity (RAW264.7 [10]) was “Dose-Dependent Effect”, the Activity (Mus musculus [11]) was “Dose-Dependent Effect” and the Activity (Mus musculus [12]) was “Active”. The Activity (Mus musculus [13]) was “Active”, the Activity (RAW264.7 [14]) was “Dose-Dependent Effect” and the Activity (RAW264.7 [15]) was “Dose-Dependent Effect”. The Activity (RAW264.7 [16]) was “Active”, the Activity (RAW264.7 [17]) was “Dose-Dependent Effect” and the Activity (Mus musculus [18]) was “Dose-Dependent Effect”. For the same compound, the Activity (Mus musculus [19]) was “Active”, the Activity (RAW264.7 [20]) was “Dose-Dependent Effect” and the Activity (RAW264.7 [21]) was “Dose-Dependent Effect”. The Activity (RAW264.7 [22]) was “Dose-Dependent Effect”, the Activity (RAW264.7 [23]) was “Active” and the Activity (RAW264.7 [24]) was “Dose-Dependent Effect”. The Activity (RAW264.7 [25]) was “Dose-Dependent Effect”, the Activity (RAW264.7 [26]) was “Dose-Dependent Effect” and the Activity (RAW264.7 [27]) was “Dose-Dependent Effect”. For the same compound, the inhibition (Mus musculus [28]) was “Active”, the Activity (Mus musculus [29]) was “Active” and the Activity (RAW264.7 [30]) was “Dose-Dependent Effect”. The inhibition (Mus musculus [31]) was “Active”.
With CC(C)c1cc2c(c(O)c1O)C=C1C=CC(=O)C(C)(C)C1CC2=O (configuration not stated) the Activity (RAW264.7 [32]) was “Toxic”.
For C[C@@H]1C[C@H]2[C@@H]3CCC4=CC(=O)C=C[C@]4(C)[C@@]3(F)[C@@H](O)C[C@]2(C)[C@@]1(O)C(=O)CO, the Activity (RAW264.7 [2]) was “Active”, the Activity (RAW264.7 [16]) was “Active” and the Activity (RAW264.7 [23]) was “Active”.
In the case of CC(C)c1cc2c(c3c1OC(C)(C)O3)C=C1C=CC(=O)C(C)(C)C1=CC2, the Activity (RAW264.7 [32]) is reported as “Toxic”.
For COc1c(C(C)C)cc2c(=O)cc3c(cc2c1OC)C=CC(O)C3(C)C (configuration not stated), the Activity (RAW264.7 [32]) was “Toxic”.

— ChEMBL document CHEMBL5625256, “Rapid access to icetexane diterpenes: Their protective effects against lipopolysaccharides-induced acute lung injury via PI3K/AKT/NF-κB axis in macrophages” (Eur J Med Chem, 2023)
